According to patent US8263563B2, “Furin inhibitors” (priority 2004, dated 2012):
Ends that are not written are not given here. * marks the point of attachment. Decanoyl = CCCCCCCCCC(=O)*; OPH = not defined here; CH2Cl = ClC*

Tested on: lung epethalial and macrophage cells exposed to anthrax toxin (PA and FP59)
Type: cell-based

## PGluArgValArgArgOPH (PERVRR-{OPH}; not fully specified (some residues); printed as PGluArgValArgArgOPH; reading uncertain) [ERVRR-OPH]
  Protein Synthesis Inferred From ^35S incorporation: 70.9 ± 8.7%

## decanoyl RVKR-CMK (Decanoyl-RVKR-CH2Cl)
  Protein Synthesis Inferred From ^35S incorporation: 86.9 ± 9.9%
